Results reported in patent US20130253179A1, “Functionalization Processes and Reactants Used in Such Processes Using an Isatoic Anhydride or a Derivative Thereof, Biological Molecules Thus Treated and Kits” (priority 2010, published 2013).

What was measured:
[1] = system: in vitro RNA transcripts (IVT); assay: Functionalisation of in vitro RNA transcripts, Cy3 and RNA assay, DoL (Degree of Labelling); format: biochemical, human
Experimental: The in vitro transcripts are generated in the same way as described in example 8. In this example, we have used four concentrations of functionalisation molecule Cy3 IA Me (13) in order to determine the most appropriate concentration for detection of the most sensitive functionalised IVTs.
6 μg of in vitro transcripts are taken up in a total volume of 20 μL of a 10 mM solution of Zn(OAc)2 pH 6.5. The solution is incubated for 15 min at 70° C. in order to partially fragment the RNA until a majority of fragments are obtained which are of a size between 25 and 200 bases. After this incubation, the solution is immediately put into ice.
11 μL of the transcript solution is mixed with 4 μL of a 500 mM solution of NaHCO3 pH 8-8.5, and with 5 μL of a 120, 240, 360 or 480 mM solution of Cy3 IA Me (13) in DMSO, to obtain 30, 60, 90 or 120 mM solutions of functionalisation reagent, respectively. These solutions are incubated at 65° C. for one hour.
The excess of functionalisation reagent as well as that of the different salts are eliminated by isopropanol precipitation then by acetone precipitation. To do this, 6 μL of 3M sodium acetate (i.e. 30% by volume) and 14 μL of isopropanol (i.e. 70% by volume) are added to the functionalisation solution. Vortex stirring is performed and centrifuging is performed for 30 mins at 14,000 rpm (20,800 g) at 4° C. The supernatant is eliminated and then the pellet is rinsed with 50 μL of 70% ethanol. Centrifuging is carried out again for 15 mins at 14,000 rpm (20,800 g) at 4° C., and the supernatant is eliminated.
280 μL of water, 18 μL of 3M LiClO4 and 900 μL of acetone are added to the pellet. Vortex stirring is performed, centrifuging is performed and the supernatant is eliminated. Next, 280 μL of water, 18 μL of 3M LiClO4 and 900 μL of acetone are added to the pellet. Vortex stirring is performed, centrifuging is performed and the supernatant is eliminated. The pellet is rinsed with 50 μL of 70% ethanol and then centrifuging is carried out for 15 mins at 14,000 rpm (20,800 g) at 4° C. The supernatant is eliminated, and the pellet is dried under vacuum with the rotary evaporator before the pellet is taken up in 20 μL of water (i.e. [in vitro transcripts]theoretical=[…]).
In order to determine the quantity of functionalised in vitro transcripts recovered after these different treatments, 1.2 μl of each end solution are assayed by UV spectrophotometry at 260 nm (Nanodrop 100, Thermo Scientific Waltham, USA). An assay is also carried out at 550 nm in order to learn the Cy3 functionalisation rate of the in vitro transcripts (% of Cy3 molecules per 100 nucleosides). This value is also known under the name DoL (Degree of Labelling) and is calculated with the following equation: DoL (in %)=100×(340×[Cy3])/(1000×[RNA]). […]

[2] = system: MAQC RNA; assay: DoL of MAQC total RNA after zinc acetate cleaving and alkaline phosphatase treatment; format: biochemical, human; settings: compound 15 mM
Experimental: The panel of RNA strands is MAQC RNA (Stratagene Reference: #74000). This total RNA (ribosomal and messenger) is directly extracted from ten lines of human cells of different origin: brain, breast, B Lymphocyte, uterine cervix, liver, liposarcoma, macrophage, skin, testicle, Lymphocyte T.
The functionalisation protocol is the same as that described in example 9, i.e.: • 12 μg of MAQC0 RNA is incubated, or not, with a Zinc acetate solution. • The mixture is precipitated with isopropanol. • 7 units of alkaline phosphatase (P7923-2KU Sigma-Aldrich) are added to the mixture, […] There is then added to the mixture the molecule Cy3-IA Me 13 at 15 mM in a NaHCO3 buffer (100 mM/DMSO 75/25 pH 8-8.5), with a total volume of 80 μl. The mixture is incubated for 1 h at 65° C. • The mixture is precipitated once again with isopropanol, then twice with acetone, before the DoL is measured as described in example 9.

`CCN1/C(=C\C=C\C2=[N+](CCCCCC(=O)Nc3ccc4c(c3)c(=O)oc(=O)n4C)c3ccc(S(=O)(=O)[O-])cc3C2(C)C)C(C)(C)c2cc(S(=O)(=O)[O-])ccc21.[K+]` [Cy3 IA Me 13, 1-methyl 5-Cy3-isatoic anhydride] showed a DoL ([1]; 30 mM compound in the solution) of 0.8%, a DoL ([1]; 60 mM compound in the solution) of 1.7% and a DoL ([1]; 90 mM compound in the solution) of 2%. It also gave a DoL ([1]; 120 mM compound in the solution) of 2.7%, a DoL ([2]; 10 mM Zn(OAc)2 0 mins, AP hydrolysis 0) of 1.7% and a DoL ([2]; 10 mM Zn(OAc)2 0 mins, AP hydrolysis 4 h) of 1.5%. It also gave a DoL ([2]; 10 mM Zn(OAc)2 15 mins, AP hydrolysis 0) of 1.7% and a DoL ([2]; 10 mM Zn(OAc)2 15 mins, AP hydrolysis 4 h) of 2.5%.
